Source: US20230381257A1, “HERBAL COMPOSITION JCM-16021 AS TREATMENT FOR INFLAMMATORY BOWEL DISEASE” (Hong Kong Baptist University, priority 2022, published 2023)

Experiments:
Format in all cases: in vivo, Rag 1−/− immunodeficient mice
[1] = test system: ulcerative colitis induced by CD4+ naive T cell transfer; experiment: CD4+ naive T cell transfer-induced ulcerative colitis model: fecal occult blood, pathological index, H&E/PAS histology
From the text: Day one of the experiment is defined as i) adoptive transfer of […] CD4^+ T cells to Rag 1^−/− mice or ii) first day of DSS administration. JCM-16021 was orally administered to mice (weighing approximately 22-24 grams) at doses of 1.0 and 2.0 g/kg. Body weight and fecal bleeding were monitored every three days. Mice were euthanized and serum, colon tissue, spleen, mesenteric lymph nodes and feces were collected for further analysis.
Fecal occult blood test kit was purchased from Nanjing Jiancheng Bioengineering Institute and performed according to the kit instructions.
Histological staining, PAS staining, immunohistochemical staining and immunofluorescent staining: • At the end of the experiment, mouse colon tissue was preserved using 4% paraformaldehyde fixed at 4° C. for 2 hours and embedded in paraffin. After dewaxing, mouse colon tissue sections were washed with PBS and blocked with 3% H2O2. Tissue sections were then blocked with blocking solution (10% horse serum, 0.1% bovine serum albumin, 0.2% gelatin) at room temperature for 1 hour to block non-specific sites. […]
Histological grading of colitis were analyzed based on inflammatory features, extent, regeneration, crypt damage and percentage in hematoxylin-eosin and periodic acid-Schiff stained colon sections. Colitis scores will be determined by two independent researchers blinded to animal treatment.
CD4^+ naive T cells were isolated and purified from the spleens of wild-type C57BL/6J mice using a naive CD4+ T cell isolation kit (#130-104-453, Miltenyi Biotech) according to the manufacturer's recommendations. The isolated CD4^+ naive T cells were incubated with antibodies against CD4 (#100406, BioLegend), CD25 (#17025182, eBiosciences) and CD45RB (#103314, BioLegend) and purity was analyzed by BD Fortessa flow cytometer (BD Biosciences). […] Clinical symptoms of colitis including fecal occult blood, loose stool/diarrhea, rough/hunched posture and weight loss were monitored every three days thereafter. […]

[2] = test system: Tnf-α and Mcp-1 mRNA; experiment: qRT-PCR of colon tissue, T cell transfer colitis model
Description: Total RNA was extracted from tissues using Trizol reagent (Invitrogen) and reverse transcribed into cDNA using cDNA synthesis kit (Bio-Rad Laboratories). The cDNA was diluted 50-fold as a template for qRT-PCR. According to the kit instructions mRNA expression levels were detected using SYBR Green fluorescent probe. Primers used for qRT-PCR are: Tnf-α, forward primer 5′-[…]-3′ (SEQ ID NO:1), reverse primer 5′-[…]-3′ (SEQ ID NO:2); Mcp-1, forward primer 5′-[…]-3′ (SEQ ID NO:3), reverse primer 5′-[…]-3′ (SEQ ID NO:4); 18S rRNA, forward primer 5′-[…]-3′ (SEQ ID NO:5), reverse primer 5′-[…]-3′ (SEQ ID NO:6).
CD4^+ naive T cells were isolated and purified from the spleens of wild-type C57BL/6J mice using a naive CD4+ T cell isolation kit (#130-104-453, Miltenyi Biotech) according to the manufacturer's recommendations. The isolated CD4^+ naive T cells were incubated with antibodies against CD4 (#100406, BioLegend), CD25 (#17025182, eBiosciences) and CD45RB (#103314, BioLegend) and purity was analyzed by BD Fortessa flow cytometer (BD Biosciences). 4×10^5 CD4^+ naive T cells were intraperitoneally injected into Rag 1^−/− immunodeficient mice. Clinical symptoms of colitis including fecal occult blood, loose stool/diarrhea, rough/hunched posture and weight loss were monitored every three days thereafter. […]

[3] = test system: CD4+Foxp3+ Treg cells; experiment: Flow cytometry of regulatory T cells in colon lamina propria lymphocytes, T cell transfer colitis model; details: JCM-16021 2.0 g/kg; IFLX 5 mg/kg; FACS, FIG. 4B
Description: After dissecting and isolating the colon from mice, it was washed four times in ice-cold PBS (137 mM NaCl, 2.7 mM KCl, 10 mM Na2HPO4, 1.8 mM KH2PO4, pH 7.4) and then cut into approximately 1 cm long fragments. Intestinal epithelial cells and lamina propria were separated by vigorous shaking in HBSS buffer containing 2 mM EDTA at 37° C. for 30 minutes. Intestinal epithelial cells were collected by centrifugation at 1,000 rpm at 4° C. The remaining colon tissue was incubated with digestion buffer (DMEM medium, 5% fetal calf serum, 1 mg/mL collagenase IV and DNAse I) at 37° C. with shaking for 40 minutes to separate colon lamina propria lymphocytes. The digested colon tissue cell suspension was filtered through a 70 micron cell filter and centrifuged. […]
Colon lamina propria lymphocytes were diluted to 1×10^5 cells/mL and subjected to intracellular staining after fixation and permeabilization. Cells were stained with a primary antibody diluted 1:100 at 4° C. in the dark for 30 minutes and analyzed by flow cytometry using antibodies against CD3 (APC, BD Biosciences), CD4 (FITC, BD Biosciences), and Foxp3 (PE, BD Biosciences). Analysis was performed using a BD LSRFortessa™ flow cytometer (BD Biosciences) and data obtained was analyzed using FlowJo software. […]

In the case of infliximab [IFLX], the fecal occult blood ([1]; JCM-16021 1.0 and 2.0 g/kg oral twice daily for three weeks, IFLX 5 mg/kg once weekly, FIG. 1C) is reported as “did not exhibit similar activity”, the “ulcerative colitis pathological index” value ([1]; JCM-16021 1.0 and 2.0 g/kg oral twice daily for three weeks, IFLX 5 mg/kg once weekly, FIG. 1D) is reported as “did not exhibit similar activity” and the “overall therapeutic efficacy (comparison of doses and with IFLX)” value ([1]; JCM-16021 2.0 g/kg vs 1.0 g/kg, infliximab 5 mg/kg under the same experimental conditions) is reported as “less effective than JCM-16021”. For the same substance, the “expression level of Tnf-α mRNA in colon tissue” value ([2]; FIG. 2B) was “significantly reduced”, the “expression level of Mcp-1 mRNA in colon tissue” value ([2]; FIG. 2C) was “significantly reduced” and the “ratio of CD4+Foxp3+ Treg cells in isolated LPMC” value [3] was “similar”.
